Measurements taken from ChEMBL document CHEMBL1201862, “PubChem BioAssay data set” (2004).
The source made the active and inactive calls. Cut-off read from the data, not from the text of the source, for most assays here: actives have a measured EC50 and inactives only a lower limit.

Experiments:
[1] = target: Paired box protein Pax-8 (Homo sapiens, UniProt Q06710); assay: inhibitors of PAX8-driven TPO luciferase reporter, dose response, RMG-I cells, cherry-pick (AID 687027); format: functional, cell-based;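 note: luciferase reporter driven by Pax8 target thyroperoxidase promoter measured by SteadyGlo luminescence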
Sequence of Paired box protein Pax-8 (Q06710 whole entry): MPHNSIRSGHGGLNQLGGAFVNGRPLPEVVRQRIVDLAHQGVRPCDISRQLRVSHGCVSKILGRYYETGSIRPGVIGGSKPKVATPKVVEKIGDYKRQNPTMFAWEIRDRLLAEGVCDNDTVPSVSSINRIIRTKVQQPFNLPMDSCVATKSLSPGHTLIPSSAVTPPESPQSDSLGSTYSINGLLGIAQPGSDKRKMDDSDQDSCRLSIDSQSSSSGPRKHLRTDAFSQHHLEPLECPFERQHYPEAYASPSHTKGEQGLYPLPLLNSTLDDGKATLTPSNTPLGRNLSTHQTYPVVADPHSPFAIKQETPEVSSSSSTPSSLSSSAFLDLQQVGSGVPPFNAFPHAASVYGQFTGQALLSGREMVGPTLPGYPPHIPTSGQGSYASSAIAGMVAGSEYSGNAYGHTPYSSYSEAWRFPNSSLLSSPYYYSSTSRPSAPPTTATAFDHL

[2] = Luminescence Cell-Based Dose Confirmation HTS to Identify Activators of 5'UTR Stem-Loop Driven Alpha-Synuclein mRNA Translation in H4 Neuroglioblastoma Cells. [Related pubchem assays: 1829 (Project Summary), 1814 (Primary HTS)]; format: functional
[3] = Luminescence Cell-Based Dose Response HTS to Identify Activators of Luciferase Translation or Activity in H4 […] Cells. [Related pubchem assays: 1829 (Project Summary), 1814 (Primary HTS)]; format: functional
[4] = system: H4; assay: Luminescence Cell-Based Dose Response HTS to Identify Activators of 5'UTR Stem-Loop Driven Prion Protein mRNA Translation in H4 Neuroglioblastoma Cells. [Related pubchem assays: 1829 (Project Summary), 1814 (Primary HTS)]; format: functional; settings: Homo sapiens
[5] = target: T1, Heat shock factor protein 1 (Mus musculus, UniProt P38532); assay: HSF1 potentiators in luciferase reporter cells, confirmation, cell-based, NIH3T3, luminescence, dose retest (AID 435004); format: functional;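 note: stress induced by proteasome inhibitor MG132 added 30 min after compound; luciferase reporter driven by HSF1 response element in NIH3T3 cells; actives raise luminescence as potentiators of the MG132 stress response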
T1 sequence (P38532 whole entry): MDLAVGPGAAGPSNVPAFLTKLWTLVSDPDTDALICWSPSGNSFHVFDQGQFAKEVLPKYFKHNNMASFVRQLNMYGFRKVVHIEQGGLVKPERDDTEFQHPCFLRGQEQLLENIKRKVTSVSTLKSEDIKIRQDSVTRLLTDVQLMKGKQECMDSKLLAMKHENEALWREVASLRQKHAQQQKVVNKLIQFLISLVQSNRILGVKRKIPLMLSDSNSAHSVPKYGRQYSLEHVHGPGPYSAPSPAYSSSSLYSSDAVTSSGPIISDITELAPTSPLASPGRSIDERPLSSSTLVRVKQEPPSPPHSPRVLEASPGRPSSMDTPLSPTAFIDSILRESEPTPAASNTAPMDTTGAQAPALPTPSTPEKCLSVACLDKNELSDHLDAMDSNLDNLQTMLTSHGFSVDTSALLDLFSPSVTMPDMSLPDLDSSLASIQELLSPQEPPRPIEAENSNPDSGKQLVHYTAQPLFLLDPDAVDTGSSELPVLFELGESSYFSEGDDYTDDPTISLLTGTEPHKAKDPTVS

[6] = target: T2, Protein skinhead-1 (Caenorhabditis elegans, UniProt P34707); format: functional
T2 sequence (P34707 whole entry): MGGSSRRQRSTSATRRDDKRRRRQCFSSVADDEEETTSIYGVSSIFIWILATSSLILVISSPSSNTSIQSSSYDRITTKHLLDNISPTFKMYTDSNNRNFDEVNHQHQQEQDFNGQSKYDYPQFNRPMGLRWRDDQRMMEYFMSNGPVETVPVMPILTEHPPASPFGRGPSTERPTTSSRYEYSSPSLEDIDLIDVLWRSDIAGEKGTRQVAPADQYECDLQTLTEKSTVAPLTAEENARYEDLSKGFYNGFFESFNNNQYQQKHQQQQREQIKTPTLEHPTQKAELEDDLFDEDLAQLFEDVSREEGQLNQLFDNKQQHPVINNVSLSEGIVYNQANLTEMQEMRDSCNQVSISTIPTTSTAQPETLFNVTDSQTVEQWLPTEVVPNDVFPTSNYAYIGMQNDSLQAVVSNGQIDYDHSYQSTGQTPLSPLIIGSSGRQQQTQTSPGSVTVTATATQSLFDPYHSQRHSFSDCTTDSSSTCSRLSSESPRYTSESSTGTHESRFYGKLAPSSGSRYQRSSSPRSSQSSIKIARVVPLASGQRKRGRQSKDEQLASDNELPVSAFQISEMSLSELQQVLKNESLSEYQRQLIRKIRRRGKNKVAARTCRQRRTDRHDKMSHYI

[7] = target: Cytochrome P450 2D6 (Homo sapiens, UniProt P10635);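 note: CYP2D6 member of a cytochrome P450 panel assay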
Sequence of Cytochrome P450 2D6 (P10635 whole entry): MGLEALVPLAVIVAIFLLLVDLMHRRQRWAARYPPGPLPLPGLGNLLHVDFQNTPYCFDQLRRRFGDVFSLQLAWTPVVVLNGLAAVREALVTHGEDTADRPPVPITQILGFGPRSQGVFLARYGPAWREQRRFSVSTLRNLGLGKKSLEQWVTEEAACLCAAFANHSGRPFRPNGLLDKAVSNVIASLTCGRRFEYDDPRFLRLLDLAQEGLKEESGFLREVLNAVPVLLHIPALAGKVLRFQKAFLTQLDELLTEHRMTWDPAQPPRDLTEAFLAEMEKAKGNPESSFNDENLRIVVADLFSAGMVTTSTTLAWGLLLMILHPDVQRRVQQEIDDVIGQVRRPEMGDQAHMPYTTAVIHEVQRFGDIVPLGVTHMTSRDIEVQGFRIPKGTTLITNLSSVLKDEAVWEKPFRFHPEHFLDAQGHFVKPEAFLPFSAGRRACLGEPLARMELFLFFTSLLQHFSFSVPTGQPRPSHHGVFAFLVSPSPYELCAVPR

[8] = target: Cytochrome P450 3A4 (Homo sapiens, UniProt P08684);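 note: CYP3A4 tested as one member of a cytochrome P450 panel screen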
Sequence of Cytochrome P450 3A4 (P08684 whole entry): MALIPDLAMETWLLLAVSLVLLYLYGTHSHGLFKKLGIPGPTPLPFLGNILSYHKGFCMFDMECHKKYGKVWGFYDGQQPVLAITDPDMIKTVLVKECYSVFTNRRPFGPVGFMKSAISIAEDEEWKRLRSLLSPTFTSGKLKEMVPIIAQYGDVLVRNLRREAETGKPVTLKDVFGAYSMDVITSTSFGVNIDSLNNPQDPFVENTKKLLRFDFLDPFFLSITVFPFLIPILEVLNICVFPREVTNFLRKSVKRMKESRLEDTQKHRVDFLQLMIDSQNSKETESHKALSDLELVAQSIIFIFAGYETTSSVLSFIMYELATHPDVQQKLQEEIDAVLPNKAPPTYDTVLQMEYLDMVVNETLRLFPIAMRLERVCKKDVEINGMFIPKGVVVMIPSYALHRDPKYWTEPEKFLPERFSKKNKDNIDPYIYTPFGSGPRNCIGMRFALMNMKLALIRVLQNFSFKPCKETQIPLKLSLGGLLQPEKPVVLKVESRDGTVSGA

[9] = Luminescence Cell-Based Dose Retest to Confirm Inhibitors of Cancer Stem Cells. [Related pubchem assays (depositor defined):AID2717, AID2721]; format: functional; settings: Homo sapiens
[10] = HEp-2 cell cytotoxicity, dose response, cytotoxicity control for RSV inhibitor project, HTS (AID 2410); format: functional; settings: human respiratory syncytial virus
[11] = target: Cytochrome P450 2C9 (Homo sapiens, UniProt P11712)
Sequence of Cytochrome P450 2C9 (P11712 whole entry): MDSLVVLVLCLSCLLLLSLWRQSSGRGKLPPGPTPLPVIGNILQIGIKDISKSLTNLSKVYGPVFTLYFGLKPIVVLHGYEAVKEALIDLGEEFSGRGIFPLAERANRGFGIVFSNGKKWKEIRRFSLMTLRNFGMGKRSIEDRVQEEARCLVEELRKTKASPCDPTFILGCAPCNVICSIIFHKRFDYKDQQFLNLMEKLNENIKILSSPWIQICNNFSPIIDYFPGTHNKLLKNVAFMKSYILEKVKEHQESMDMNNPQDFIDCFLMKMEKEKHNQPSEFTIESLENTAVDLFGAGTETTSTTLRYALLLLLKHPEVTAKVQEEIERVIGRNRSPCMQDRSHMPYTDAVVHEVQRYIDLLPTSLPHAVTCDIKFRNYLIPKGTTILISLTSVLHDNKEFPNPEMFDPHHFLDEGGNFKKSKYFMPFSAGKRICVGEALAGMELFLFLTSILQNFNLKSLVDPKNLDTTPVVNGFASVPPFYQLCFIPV

[12] = target: T1, Heat shock factor protein 1; assay: inhibition of MG132-induced HSE-luciferase signal, confirmation, cell-based, NIH3T3, luminescence, dose retest (AID 2382); format: functional;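 note: NIH3T3 fibroblasts with HSF1-driven luciferase reporter stressed by proteasome inhibitor MG132; luminescence from HSF1-driven luciferase expression after 8 hours of MG132 stress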
[13] = system: Streptococcus sp. 'group A'; assay: growth inhibition of control SK(-) GAS strain, dose response, counter-screen for streptokinase expression inhibitor project, luminescence, kanamycin, BacTiterGlo, confirmation (AID 1900); format: functional, organism-based
[14] = target: T3, Streptokinase A (Streptococcus pyogenes serotype M1, UniProt P10520); assay: S. pyogenes streptokinase expression inhibitors, potency, dose response, plasminogen activation absorbance, OD405 (AID 1914); format: functional, Streptococcus pyogenes M1 GAS;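 note: secreted streptokinase activity via plasminogen activation per viability signal from cell pellet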
T3 sequence (P10520 whole entry): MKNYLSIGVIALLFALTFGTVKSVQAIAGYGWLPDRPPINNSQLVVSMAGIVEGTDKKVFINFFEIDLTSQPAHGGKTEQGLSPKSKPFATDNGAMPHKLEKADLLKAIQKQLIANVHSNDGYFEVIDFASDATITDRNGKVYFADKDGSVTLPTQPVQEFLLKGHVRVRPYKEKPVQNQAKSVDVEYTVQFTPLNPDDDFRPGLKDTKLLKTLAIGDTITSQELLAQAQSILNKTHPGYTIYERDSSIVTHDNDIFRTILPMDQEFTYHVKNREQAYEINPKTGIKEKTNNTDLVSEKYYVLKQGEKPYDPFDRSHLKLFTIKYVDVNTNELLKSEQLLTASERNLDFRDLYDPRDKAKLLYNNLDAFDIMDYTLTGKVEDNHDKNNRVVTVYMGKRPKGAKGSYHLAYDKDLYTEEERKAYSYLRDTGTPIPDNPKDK

[15] = system: Streptococcus; assay: Group A Streptococcus viability loss, dose response, counter-screen for streptokinase expression inhibitor project, luminescence, BacTiterGlo (AID 1915); format: functional, organism-based;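 note: potency for reduction of bacterial viability or growth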

O=S(=O)(NC1CCCCC1N1CCN(c2ccccc2F)CC1)c1ccccc1 (stereo not drawn)
AC50 [1]: 23.1 µM (active)

C=CCSc1n[nH]c(-c2ccccc2)n1
EC50 [2]: 9.22 µM (active)
EC50 [3]: 8.06 µM (active)
EC50 [4]: 75.3 µM (active)

CN(C)c1nc(N)nc(CSc2nnnn2-c2ccc(F)cc2)n1
EC50 [5]: > 260 µM (inactive)

Cn1c(S)nnc1Cc1c[nH]c2ccccc12
IC50 [6]: > 100 µM (inactive)

COc1ccccc1CNCCCCCCNCCCCCCCCNCCCCCCNCc1ccccc1OC [METHOCTRAMINE]
AC50 [7]: 31.6 µM (inconclusive)
AC50 [8]: 10 µM (inconclusive)

CCCC12CN3CC(C)(CN(C1)C3c1ccc3c(c1)OCO3)C2=O (stereo not drawn)
EC50 [5]: > 260 µM (inactive)

CC1(C(=O)NS(=O)(=O)c2cccs2)CCN1C(=O)Cc1ccc(-c2ccccc2)cc1 (stereo not drawn)
IC50 [6]: > 100 µM (inactive)

FC(F)(F)c1ccc(-c2noc(CN3CCCN(C4CCCCC4)CC3)n2)cc1
AC50 [9]: 1.79 µM (active)

O=C1CN(c2nc(-c3cccs3)nc3sc4c(c23)CCCC4)CCN1
CC50 [10]: > 50 µM (active)
EC50 [2]: 9.49 µM (active)
EC50 [3]: 15.2 µM (active)
EC50 [4]: 21 µM (active)

COc1ccccc1NC(=O)CSc1nnc(-c2ccncc2)o1
IC50 [6]: > 100 µM (inactive)

COc1cc(OC)c(OC)cc1/C=N\CC1(c2ccccc2)CCCC1
AC50 [7]: 28.2 µM (inconclusive)
AC50 [8]: 25.1 µM (inconclusive)

CN(Cc1ccco1)c1ncnc2ccc(-c3cccc(C#N)c3)cc12
AC50 [7]: 25.1 µM (inconclusive)
AC50 [8]: 31.6 µM (inconclusive)
AC50 [11]: 1.58 µM (inconclusive)

CCN(CC)S(=O)(=O)c1cc([N+](=O)[O-])ccc1NNC(=O)Nc1ccccc1OC
EC50 [5]: > 260 µM (inactive)

O=C1c2ccccc2CCc2ccc(Br)cc21
IC50 [6]: 35.6 µM (active)

Cc1cc(NC(=O)COc2cccc(Oc3ccccc3)c2)no1
EC50 [2]: > 120 µM (not active)
EC50 [3]: > 120 µM (not active)
EC50 [4]: > 120 µM (not active)

O=S(=O)(Nc1ccc2c(c1)OCCO2)c1cccs1
EC50 [2]: 14.8 µM (active)
EC50 [3]: 10.9 µM (active)
EC50 [4]: 10.8 µM (active)
EC50 [12]: 2.91 µM (active)

COC(=O)[C@@]1(Cc2ccccc2)[C@H]2c3cc(C(=O)N4CCCC4)n(Cc4ccc(OC)c(OC)c4)c3C[C@H]2CN1C(=O)c1ccccc1
AC50 [7]: 31.6 µM (inconclusive)

O=C(Nc1nc(-c2cccc3ccccc23)cs1)c1ccc2c(c1)S(=O)(=O)c1ccccc1C2=O
AC50 [9]: 3.99 µM (active)

COC(=O)C1=C(c2ccc(F)cc2OCc2ccccc2)C[C@@H]2CC[C@H]1N2C(=O)NCc1ccc2[nH]ccc2c1
AC50 [1]: 18.2 µM (active)

COc1cc(C2C3=C(COC3=O)Oc3cc4c(cc32)OCO4)cc(OC)c1O (stereo not drawn)
AC50 [1]: 1.74 µM (active)

CC1(C)CC(=O)C(C2C3=C(CC(C)(C)CC3=O)OC3=C2C(=O)CC(C)(C)C3)=C(O)C1
EC50 [5]: > 260 µM (inactive)

Oc1c2c(nc3cc(-c4cccc(F)c4)nn13)CCC2
EC50 [5]: > 260 µM (inactive)

COc1ccc(NC(=O)CSc2n[nH]c(N)n2)cc1OC
EC50 [2]: > 120 µM (not active)
EC50 [3]: > 120 µM (not active)
EC50 [4]: > 120 µM (not active)

COC(=O)c1ccc(CC2(C)C(=O)Nc3ccc(-c4cccc(C(F)(F)F)c4)cc32)o1 (stereo not drawn)
IC50 [6]: 79.3 µM (inactive)

CCOc1ccc(C(=O)NC(=S)N(Cc2ccccc2)Cc2ccccc2)cc1
EC50 [13]: 2.46 µM (active)
EC50 [14]: > 150 µM (not active)
EC50 [15]: 7.11 µM (active)
AC50 [7]: 6.31 µM (inconclusive)

Cc1ccc(-c2noc(CCC(=O)Nc3cc(C)ccn3)n2)cc1
EC50 [5]: > 260 µM (inactive)

Cc1ccc(NN/C=C2\C(=O)NC(=O)N(c3ccccc3)C2=O)cc1
AC50 [9]: 2.35 µM (active)

C/C(=N\NC(=O)c1ccoc1C)c1cccc2ccccc12
EC50 [5]: > 260 µM (inactive)

c1ccc(N2OCC3Cn4c(nc5ccccc54)C32)cc1 (stereo not drawn)
EC50 [2]: 30.3 µM (active)
EC50 [3]: 8.69 µM (active)
EC50 [4]: 44.2 µM (active)

CC(NC(=O)c1cc(COc2ccccc2)on1)c1nccs1 (stereo not drawn)
IC50 [6]: > 100 µM (inactive)

NCCSc1nc2ccccc2s1
AC50 [7]: 3.98 µM (inconclusive)

O=C(Nc1cccc(-c2csc(Nc3ccccc3)n2)c1)c1ccccc1
AC50 [9]: 2.96 µM (active)
IC50 [6]: > 100 µM (inactive)

Cc1ccc(F)c(C2C3C=CCC(c4cccc(-c5ccc(N(C)C)cc5)c4)C3C(=O)N2Cc2ccccc2)c1 (stereo not drawn)
IC50 [6]: > 100 µM (inactive)

COc1cccc(C(=O)N(Cc2ccccc2)Cc2cc3cc4c(cc3nc2O)OCCO4)c1
AC50 [7]: 0.224 µM (inconclusive)

O=C(/C=C\Nc1ccc(Br)cc1)c1cccnc1
IC50 [6]: 71.4 µM (inactive)

C/C(=C\C(=O)c1ccc(Br)cc1)NCc1ccccc1
EC50 [2]: > 120 µM (not active)
EC50 [3]: 9.58 µM (active)
EC50 [4]: 90.3 µM (active)

Oc1ccc(C2C(c3ccccc3)=NN=C(c3ccccc3F)N2O)c(O)c1 (stereo not drawn)
EC50 [2]: 95.8 µM (active)
EC50 [3]: 72.3 µM (active)
EC50 [4]: > 120 µM (not active)
